Test results taken from patent publication US20040023994A1 (priority 2002, published 2004).
Like-named read-outs stand apart in the source and are kept apart here.

Columns and labels:
MDA-N = settings: Breast, NCI database, cited from earlier work
BT-549 = settings: BT-549, Breast, NCI database, cited from earlier work
IGR-OV1 = settings: IGR-OV1, Ovarian, NCI database, cited from earlier work
OVCAR-5 = settings: OVCAR-5, Ovarian, NCI database, cited from earlier work
DU-145 = settings: DU-145, Prostate, NCI database, cited from earlier work
SN12C = settings: Renal, NCI database, cited from earlier work
LOX IMVI = settings: Melanoma, NCI database, cited from earlier work
MALME-3M = settings: Melanoma, NCI database, cited from earlier work
M14 = settings: M14, Melanoma, NCI database, cited from earlier work
SK-MEL-2 = settings: SK-MEL-2, Melanoma, NCI database, cited from earlier work
UACC-257 = settings: UACC-257, Melanoma, NCI database, cited from earlier work
A549/ATCC = settings: Non-Small Cell Lung, NCI database, cited from earlier work
NCI-H23 = settings: NCI-H23, Non-Small Cell Lung, NCI database, cited from earlier work
NCI-H460 = settings: NCI-H460, Non-Small Cell Lung, NCI database, cited from earlier work
U251 = settings: U251, CNS, NCI database, cited from earlier work
MOLT-4 = settings: MOLT-4, Leukemia, NCI database, cited from earlier work
HCT-116 = settings: for CC50: read-out: LC50
HCT-15 = settings: for CC50: read-out: LC50
HT29 = settings: for CC50: read-out: LC50
SW-620 = settings: for CC50: read-out: LC50
UO-31 = settings: for CC50: read-out: LC50
SK-MEL-28 = settings: for CC50: read-out: LC50
HOP-92 = settings: for CC50: read-out: LC50
SNB-75 = settings: for CC50: read-out: LC50
K-562 = settings: for CC50: read-out: LC50
[1] = read-out: LC50 (the source's name)
[2] = HOP-92, Non-Small Cell Lung, 48 h

Nc1nc2nc[nH]c2c(=S)[nH]1 [6-TG, 6-thioguanine]
CC50 (MDA-N; [1]): > 100 µM | GI50 (MDA-N): 1.01 µM | TGI (MDA-N): 26.4 µM | GI50 (BT-549): 3.59 µM | TGI (BT-549): >100 µM | CC50 (BT-549; [1]): > 100 µM | GI50 (IGR-OV1): 4.79 µM | TGI (IGR-OV1): >100 µM | CC50 (IGR-OV1; [1]): > 100 µM | GI50 (OVCAR-5): 0.65 µM | TGI (OVCAR-5): 47.5 µM | CC50 (OVCAR-5; [1]): > 100 µM | GI50 (DU-145): 0.78 µM | TGI (DU-145): >100 µM | CC50 (DU-145; [1]): > 100 µM | CC50 (SN12C; [1]): > 100 µM | GI50 (SN12C): 1.25 µM | TGI (SN12C): >100 µM | CC50 (LOX IMVI; [1]): > 100 µM | GI50 (LOX IMVI): 0.21 µM | TGI (LOX IMVI): 8.99 µM | CC50 (MALME-3M; [1]): > 100 µM | GI50 (MALME-3M): 1.34 µM | TGI (MALME-3M): 28.6 µM | GI50 (M14): 0.58 µM | TGI (M14): 14.3 µM | CC50 (M14; [1]): > 100 µM | GI50 (SK-MEL-2): 0.92 µM | TGI (SK-MEL-2): 10.5 µM | CC50 (SK-MEL-2; [1]): > 100 µM | GI50 (UACC-257): 1.98 µM | TGI (UACC-257): 95.7 µM | CC50 (UACC-257; [1]): > 100 µM | CC50 (A549/ATCC; [1]): > 100 µM | GI50 (A549/ATCC): 3.48 µM | TGI (A549/ATCC): >100 µM | GI50 (NCI-H23): 1.06 µM | TGI (NCI-H23): 22.9 µM | CC50 (NCI-H23; [1]): > 100 µM | GI50 (NCI-H460): 0.66 µM | TGI (NCI-H460): 20.0 µM | CC50 (NCI-H460; [1]): > 100 µM | GI50 (U251): 4.89 µM | TGI (U251): >100 µM | CC50 (U251; [1]): > 100 µM | GI50 (MOLT-4): 0.27 µM | TGI (MOLT-4): 15.4 µM | CC50 (MOLT-4; [1]): > 100 µM

CC(=O)C=CSc1nc(N)nc2nc[nH]c12 [trans-AVTG, 6-(2-acetylvinylthio) guanine]
GI50 (HCT-116; HCT-116, Colon, 48 h): 0.67 µM | TGI (HCT-116; HCT-116, Colon, 48 h): 3.01 µM | CC50 (HCT-116; HCT-116, Colon, 48 h): 14.7 µM | GI50 (HCT-15; HCT-15, Colon, 48 h): 1.73 µM | TGI (HCT-15; HCT-15, Colon, 48 h): 19.4 µM | CC50 (HCT-15; HCT-15, Colon, 48 h): > 100 µM | GI50 (HT29; HT29, Colon, 48 h): 1.06 µM | TGI (HT29; HT29, Colon, 48 h): 12.5 µM | CC50 (HT29; HT29, Colon, 48 h): 60.4 µM | GI50 (SW-620; SW-620, Colon, 48 h): 1.13 µM | TGI (SW-620; SW-620, Colon, 48 h): 6.50 µM | CC50 (SW-620; SW-620, Colon, 48 h): > 100 µM | GI50 (UO-31; UO-31, Renal, 48 h): 0.62 µM | TGI (UO-31; UO-31, Renal, 48 h): 11.9 µM | CC50 (UO-31; UO-31, Renal, 48 h): 39.1 µM | GI50 (SK-MEL-28; SK-MEL-28, Melanoma, 48 h): 11.6 µM | TGI (SK-MEL-28; SK-MEL-28, Melanoma, 48 h): 24.8 µM | CC50 (SK-MEL-28; SK-MEL-28, Melanoma, 48 h): 52.7 µM | GI50 (HOP-92; [2]): 3.01 µM | TGI (HOP-92; [2]): 19.4 µM | CC50 (HOP-92; [2]): 50 µM | GI50 (SNB-75; SNB-75, CNS, 48 h): 9.17 µM | TGI (SNB-75; SNB-75, CNS, 48 h): >100 µM | CC50 (SNB-75; SNB-75, CNS, 48 h): > 100 µM | GI50 (K-562; K-562, Leukemia, 48 h): 0.5 µM | TGI (K-562; K-562, Leukemia, 48 h): >100 µM | CC50 (K-562; K-562, Leukemia, 48 h): > 100 µM

CC(=O)C=CSc1ncnc2nc[nH]c12 [cis-AVTP, 6-(2-acetylvinylthio) purine]
TGI (HCT-116; HCT-116, Colon, 48 h): 1.89 µM | GI50 (HCT-116; Homo sapiens, HCT-116, 48 h): 0.51 µM | CC50 (HCT-116; Homo sapiens, HCT-116, 48 h): 4.73 µM | TGI (HCT-15; HCT-15, Colon, 48 h): 5.98 µM | GI50 (HCT-15; Homo sapiens, HCT-15, 48 h): 1.88 µM | CC50 (HCT-15; Homo sapiens, HCT-15, 48 h): 41.3 µM | TGI (HT29; HT29, Colon, 48 h): 2.85 µM | GI50 (HT29; Homo sapiens, HT-29, 48 h): 0.73 µM | CC50 (HT29; Homo sapiens, HT-29, 48 h): 9.23 µM | GI50 (SW-620; Homo sapiens, SW-620, 48 h): 1.52 µM | CC50 (SW-620; Homo sapiens, SW-620, 48 h): > 100 µM | TGI (SW-620; SW-620, Colon, 48 h): >100 µM | GI50 (UO-31; Homo sapiens, UO-31, 48 h): 0.6 µM | CC50 (UO-31; Homo sapiens, UO-31, 48 h): 4.48 µM | TGI (UO-31; UO-31, Renal, 48 h): 1.85 µM | GI50 (SK-MEL-28; Homo sapiens, SK-MEL-28, 48 h): 1.84 µM | CC50 (SK-MEL-28; Homo sapiens, SK-MEL-28, 48 h): 9.58 µM | TGI (SK-MEL-28; SK-MEL-28, Melanoma, 48 h): 4.19 µM | TGI (HOP-92; [2]): 5.45 µM | GI50 (HOP-92; Homo sapiens, HOP-92, 48 h): 1.69 µM | CC50 (HOP-92; Homo sapiens, HOP-92, 48 h): 32.9 µM | GI50 (SNB-75; Homo sapiens, SNB-75, 48 h): 4.19 µM | CC50 (SNB-75; Homo sapiens, SNB-75, 48 h): 49.1 µM | TGI (SNB-75; SNB-75, CNS, 48 h): 18.6 µM | GI50 (K-562; Homo sapiens, K562, 48 h): 0.09 µM | CC50 (K-562; Homo sapiens, K562, 48 h): > 100 µM | TGI (K-562; K-562, Leukemia, 48 h): >100 µM
